In patent US20230149432A1, “Human Milk Oligosaccharides for Improving Resistance of Organism Against Staphylococcus Aureus Infection” (Inner Mongolia Yili Industrial Group Co., Ltd., priority 2020, published 2023):

Assays:
[1] = system: Staphylococcus aureus ATCC25923; test: Nematode infection model and lifespan assay (survival of C. elegans infected by Staphylococcus aureus); assay type: in vivo, Caenorhabditis elegans; conditions: for dose-effect relationship of protection of nematode survival: doses up to 30 mg/mL
Protocol: Human milk oligosaccharide solutions were prepared with distilled water and incubated in Petri dishes containing a nematode growth medium at different final concentrations (1, 10, and 30 mg/mL, respectively). To better determine the range of the ideal concentration, a preliminary screening on the dose-effect relationship of 2′-FL was first performed, and the 2′-FL concentrations used were 0.001, 0.01, 0.1, 1 and 10 mg/mL. For the HMO compositions, included were a test concentration of 8 mg/mL and a 15 mg/mL, respectively, after the addition into the nematode growth medium.
Age-consistent nematodes were obtained and cultured in Petri dishes containing nematode agar media (nematode media containing E. coli OP50 as food) with different doses of HMO (1, 8, 10, 15, 30 mg/mL) for co-culture. After the nematodes came into adulthood, they were transferred to petri dishes inoculated with Staphylococcus aureus ATCC25923 (supplemented at approximately 10^8 to 10^9CFU/mL) to simulate the condition of infection by Staphylococcus aureus. The intervening substances (HMO) added in the infection stage of each group were the same as those in the culture stage. Two controls were used, one without the pathogen (C. elegans dish containing E. coli OP50) and one with Staphylococcus aureus infection without any intervention (dish with Staphylococcus aureus only). In addition, a group in which an intervening substance was added in the culture phase and no intervention in the infection phase, and a group in which the intervention substance was not added in the cultivation phase but added in the infection phase were set up.
Several days into the culture of the nematodes, their survival rate was counted on a daily basis. […] Two independent assays were carried out for each condition (that is, unless otherwise specified, the experimental data in the examples were the results of two independent experiments).
Statistical comparative analysis of survival curves was performed, and log rank survival significance analysis was performed using the GraphPad Prism 4 or GraphPad Prism 9 statistical software package. One-way ANOVA was used to analyze for significant differences in survival rates among the groups on the third or fifth day of infection. For the comparison of the groups, an asterisk*represents the degree of the significant difference, with ****indicating P<0.0001, and ***indicating P<0.001. NS means not significant.

[2] = system: Staphylococcus aureus ATCC25923; test: Disc diffusion bacteriostatic zone experiment; assay type: cell-based; conditions: positive control, 200 μg/mL; 37° C., 18 hours
Protocol: In order to determine whether the tested materials themselves have an antibacterial effect, a bacteriostatic zone experiment for disk diffusion was carried out. Discs were prepared with sterile filter paper impregnated with the tested HMO materials (10 mg/mL, 30 mg/mL), and the discs were dried overnight under sterile conditions. Staphylococcus aureus ATCC25923 (1.0×10^6CFU/mL) was spread evenly on the surface of a NGM agar plate, and then the discs were placed on the surface of the inoculated agar plate petri dish. Gentamicin (200 μg/mL) was used as a positive control. All dishes were incubated at 37° C. for 18 hours.
In order to investigate whether the protective effects of individual HMOs or their compositions against Staphylococcus aureus infection, as presented in previous tests, were derived from direct bactericidal or bacteriostatic function, a test was carried out in which the test material was incubated with the bacteria population and observed whether an bacteriostatic zone of was formed. As shown in the figure, at two different concentration (left: 10 mg/mL, right: 30 mg/mL), none of the human milk oligosaccharides alone formed a transparent annular bacteriostatic zone around the inoculation site. […]

[3] = 1 mg/mL, vs infected control without intervention
[4] = 10 mg/mL, vs infected control without intervention
[5] = 30 mg/mL, vs infected control without intervention

Compound	effect on nematode survival rate after Staphylococcus aureus infection [1, 3]	effect on nematode survival rate after Staphylococcus aureus infection [1, 4]	effect on nematode survival rate after Staphylococcus aureus infection [1, 5]	dose-effect relationship of protection of nematode survival [1]	survival rate of nematodes compared with 2′-FL ([1]; infection for 3 days, 3-FL 10 mg/mL vs 2′-FL 30 mg/mL)	protection of nematodes compared with 2′-FL at the same dose ([1]; same dose, infection for 3 days)	survival rate of nematodes ([1]; under protection of 6′-SL, 10 or 30 mg/mL, infected for 3 days)	effect on lifespan of nematodes after Staphylococcus aureus infection ([1]; 15 mg/mL)	effect on nematode survival rate after Staphylococcus aureus infection ([1]; 15 mg/mL, another batch of experiments)	effect on nematode survival rate after Staphylococcus aureus infection ([1]; doses at 1 mg/mL or less, survival curve vs infected control without intervention)	formation of a transparent annular bacteriostatic zone [2]
CC(=O)N[C@H]1[C@H]([C@H](O)[C@H](O)CO)O[C@@](O[C@H]2[C@@H](O)[C@@H](CO)O[C@@H](O[C@H]3[C@H](O)[C@@H](O)C(O)O[C@@H]3CO)[C@@H]2O)(C(=O)O)C[C@@H]1O (stereo partly shown) [3′-SL, 3′-sialyllactose]	no significant effect was observed	no significant effect was observed	no significant effect was observed								
3-fucosyllactose [Composition 3-FL]	no effect	better protective function (P<0.0001)	better protective function (P<0.0001)	greater protection shown at higher doses	the same effect was achieved with 3-FL at 10 mg/mL as that with 2′-FL at 30 mg/mL	more effective in protecting nematodes from Staphylococcus aureus infection than 2′-FL					
CC(=O)N[C@H]1[C@H]([C@H](O)[C@H](O)CO)O[C@@](OC[C@H]2O[C@@H](O[C@H]3[C@H](O)[C@@H](O)[C@H](O)O[C@@H]3CO)[C@H](O)[C@@H](O)[C@H]2O)(C(=O)O)C[C@@H]1O [6′-SL, 6′-sialyllactose]	not greatly improved	significantly improved	significantly improved	has a dose-effect relationship			up to 75%				
2′-fucosyllactose [2′-FL]		considerable increase in nematode survival rate which was significant (P<0.0001)	the protective effect was significantly increased, and the effect was significant (P<0.0001)	dose-dependent and optimal at 30 mg/mL				significantly prolongs the lifespan of nematodes	significantly improves the survival rate of nematodes	did not show any effects	
CC(=O)N[C@H]1[C@H](O[C@H]2[C@@H](O)[C@@H](CO)O[C@@H](O[C@H]3[C@H](O)[C@@H](O)C(O)O[C@@H]3CO)[C@@H]2O)O[C@H](CO)[C@@H](O)[C@@H]1O[C@@H]1O[C@H](CO)[C@H](O)[C@H](O)[C@H]1O (stereo partly shown) [LNT, Lacto-N-Tetraose]	not greatly improved	significantly improved	significantly improved	has a dose-effect relationship							
Gentamicin											showed a bacteriostatic effect
